According to ChEMBL document CHEMBL1201862, “PubChem BioAssay data set” (2004):
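48-hour exposure; five concentrations; linearly interpolated endpoints. At the GI50, growth is halved.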 The source made the active and inactive calls. Rule as the data show it: active = GI50 up to about 1.1 µM and inactive = higher.

Legend:
Test in all cases: DTP human tumour cell line panel, 48 h
MDA-N = tested on: MDA-N
Hs-578T = tested on: Hs-578T
Malme-3M = tested on: Malme-3M
NCI-H23 = tested on: NCI-H23
SK-MEL-2 = tested on: SK-MEL-2
NCI-H226 = tested on: NCI-H226
HOP-62 = tested on: HOP-62
HCT-15 = tested on: HCT-15
TK-10 = tested on: TK-10
OVCAR-3 = tested on: OVCAR-3
SN12C = tested on: SN12C
SF-268 = tested on: SF-268
T47D = tested on: T47D
CCRF-CEM = tested on: CCRF-CEM
COLO 205 = tested on: COLO 205
UACC-62 = tested on: UACC-62
UO-31 = tested on: UO-31
A549 = tested on: A549
HL-60 = tested on: HL-60
SF-539 = tested on: SF-539

| SMILES | GI50 (MDA-N) | GI50 (Hs-578T) | GI50 (Malme-3M) | GI50 (NCI-H23) | GI50 (SK-MEL-2) | GI50 (NCI-H226) | GI50 (HOP-62) | GI50 (HCT-15) | GI50 (TK-10) | GI50 (OVCAR-3) | GI50 (SN12C) | GI50 (SF-268) | GI50 (T47D) | GI50 (CCRF-CEM) | GI50 (COLO 205) | GI50 (UACC-62) | GI50 (UO-31) | GI50 (A549) | GI50 (HL-60) | GI50 (SF-539) |
| --- | --- | --- | --- | --- | --- | --- | --- | --- | --- | --- | --- | --- | --- | --- | --- | --- | --- | --- | --- | --- |
| O=C[C@@H](CO)O[C@H](C=O)n1cnc2c(=O)nc[nH]c21 | 108 µM (inactive) | 664 µM (inactive) | 301 µM (inactive) | 243 µM (inactive) | 318 µM (inactive) | 583 µM (inactive) | 264 µM (inactive) | 73.8 µM | 596 µM (inactive) | 290 µM (inactive) | 266 µM (inactive) | 431 µM (inactive) | 60.5 µM (inactive) | 77.3 µM (inactive) | 288 µM (inactive) | 375 µM (inactive) | 401 µM (inactive) | 849 µM (inactive) | 65.8 µM (inactive) | 490 µM (inactive) |
| Cc1cc(=O)oc2cc(OC(=O)Nc3ccc(Cl)c(Cl)c3)ccc12 | 21.3 µM (inactive) | 20.7 µM (inactive) | 23.1 µM (inactive) | 20.7 µM (inactive) | 21.6 µM (inactive) | 20.3 µM (inactive) | 24.7 µM (inactive) | 20.9 µM | 34.9 µM (inactive) | 13 µM (inactive) | 25.3 µM (inactive) | 38 µM (inactive) | 12 µM (inactive) | 20.7 µM (inactive) | 32.4 µM (inactive) | 16 µM (inactive) | 27.4 µM (inactive) | 24.8 µM (inactive) | 18.5 µM (inactive) | 18.8 µM (inactive) |
| C=C(COCO)C(C)=O | 16.9 µM (inactive) | 23.9 µM (inactive) | 9.73 µM (inactive) | 17.5 µM (inactive) | 22.8 µM (inactive) | > 61 µM (inactive) | > 47.1 µM (inactive) | 21.4 µM | 13.7 µM (inactive) | 11.6 µM (inactive) | 18.4 µM (inactive) | 20 µM (inactive) | 15.7 µM (inactive) | 2.86 µM (inactive) | 7.52 µM (inactive) | 17.2 µM (inactive) | 12.2 µM (inactive) | 26 µM (inactive) | 3.48 µM (inactive) | 6.24 µM (inactive) |
| CCOc1ccc(NC(=O)/C(=N\NC(C)(C)C)C2C(=O)Nc3ccccc3[S+]2[O-])cc1 (stereo not given) | > 100 µM (inactive) | > 100 µM (inactive) | > 100 µM (inactive) | > 100 µM (inactive) | > 100 µM (inactive) | > 100 µM (inactive) | > 100 µM (inactive) | > 100 µM | > 100 µM (inactive) | > 100 µM (inactive) | > 100 µM (inactive) | > 100 µM (inactive) | > 100 µM (inactive) | 94.6 µM (inactive) | > 100 µM (inactive) | > 100 µM (inactive) | > 100 µM (inactive) | > 100 µM (inactive) | > 100 µM (inactive) | > 100 µM (inactive) |
| Cc1cccc2c1[nH]c1[nH]c(=O)[nH]c(=O)c12 | > 100 µM (inactive) | 53.3 µM (inactive) | > 100 µM (inactive) | > 100 µM (inactive) | > 100 µM (inactive) | > 100 µM (inactive) | > 100 µM (inactive) | > 100 µM | > 100 µM (inactive) | 30.7 µM (inactive) | > 100 µM (inactive) | > 100 µM (inactive) | > 100 µM (inactive) | > 100 µM (inactive) | > 100 µM (inactive) | > 100 µM (inactive) | > 100 µM (inactive) | > 100 µM (inactive) | > 100 µM (inactive) | > 100 µM (inactive) |
| COc1ccc2c(c1OC)OCC(CN(C)C)C2=O (stereo not given) | 18.2 µM (inactive) | 39.1 µM (inactive) | 18.5 µM (inactive) | 17.1 µM (inactive) | 16.7 µM (inactive) | > 47.1 µM (inactive) | > 51.8 µM (inactive) | 18.1 µM | 16.7 µM (inactive) | 21.5 µM (inactive) | 18.5 µM (inactive) | 25.4 µM (inactive) | 19.9 µM (inactive) | 2.15 µM (inactive) | 8.07 µM (inactive) | 17.1 µM (inactive) | 18.2 µM (inactive) | 26.1 µM (inactive) | 2.54 µM (inactive) | 20.4 µM (inactive) |
| O=c1oc2cc(O)ccc2cc1-c1nc2ccccc2o1 | 40.8 µM (inactive) | 33.4 µM (inactive) | 39.5 µM (inactive) | 32.6 µM (inactive) | 21.9 µM (inactive) | 61.5 µM (inactive) | 23.3 µM (inactive) | 34.4 µM | 37 µM (inactive) | 19.1 µM (inactive) | 49.7 µM (inactive) | 32.2 µM (inactive) | 1.07 µM (active) | 8.87 µM (inactive) | 30.8 µM (inactive) | 20 µM (inactive) | 26.9 µM (inactive) | 29.5 µM (inactive) | 23.8 µM (inactive) | 58.2 µM (inactive) |
